According to ChEMBL document CHEMBL4196230, “Design, Synthesis, and Blood-Brain Barrier Transport Study of Pyrilamine Derivatives as Histone Deacetylase Inhibitors” (ACS Med Chem Lett, 2018):

Experiments:
[1] = target: T1, Histone deacetylase 11 (Homo sapiens) (UniProt Q96DB2); experiment: Inhibition of recombinant human full length HDAC11 expressed in baculovirus infected insect cells at 30 uM using HDAC class 2a substrate measured after 30 mins by fluorescence assay relative to control
T1 sequence (whole entry): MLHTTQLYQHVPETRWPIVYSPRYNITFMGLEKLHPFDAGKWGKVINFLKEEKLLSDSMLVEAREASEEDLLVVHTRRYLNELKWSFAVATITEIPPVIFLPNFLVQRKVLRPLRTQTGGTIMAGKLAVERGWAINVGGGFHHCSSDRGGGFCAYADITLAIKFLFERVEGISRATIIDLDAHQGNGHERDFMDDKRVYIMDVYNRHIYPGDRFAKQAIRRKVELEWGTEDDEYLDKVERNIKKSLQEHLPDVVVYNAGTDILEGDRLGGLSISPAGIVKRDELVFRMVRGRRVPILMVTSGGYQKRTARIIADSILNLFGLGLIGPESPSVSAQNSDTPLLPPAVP

[2] = target: T2, Protein deacetylase HDAC6 (Mus musculus) (UniProt Q9Z2V5); experiment: Inhibition of mouse HDAC6 expressed in 293T cells at 100 uM using Ac-KGLGK(Ac)-MCA as substrate measured after 30 mins by fluorescence assay relative to control
T2 sequence (whole entry): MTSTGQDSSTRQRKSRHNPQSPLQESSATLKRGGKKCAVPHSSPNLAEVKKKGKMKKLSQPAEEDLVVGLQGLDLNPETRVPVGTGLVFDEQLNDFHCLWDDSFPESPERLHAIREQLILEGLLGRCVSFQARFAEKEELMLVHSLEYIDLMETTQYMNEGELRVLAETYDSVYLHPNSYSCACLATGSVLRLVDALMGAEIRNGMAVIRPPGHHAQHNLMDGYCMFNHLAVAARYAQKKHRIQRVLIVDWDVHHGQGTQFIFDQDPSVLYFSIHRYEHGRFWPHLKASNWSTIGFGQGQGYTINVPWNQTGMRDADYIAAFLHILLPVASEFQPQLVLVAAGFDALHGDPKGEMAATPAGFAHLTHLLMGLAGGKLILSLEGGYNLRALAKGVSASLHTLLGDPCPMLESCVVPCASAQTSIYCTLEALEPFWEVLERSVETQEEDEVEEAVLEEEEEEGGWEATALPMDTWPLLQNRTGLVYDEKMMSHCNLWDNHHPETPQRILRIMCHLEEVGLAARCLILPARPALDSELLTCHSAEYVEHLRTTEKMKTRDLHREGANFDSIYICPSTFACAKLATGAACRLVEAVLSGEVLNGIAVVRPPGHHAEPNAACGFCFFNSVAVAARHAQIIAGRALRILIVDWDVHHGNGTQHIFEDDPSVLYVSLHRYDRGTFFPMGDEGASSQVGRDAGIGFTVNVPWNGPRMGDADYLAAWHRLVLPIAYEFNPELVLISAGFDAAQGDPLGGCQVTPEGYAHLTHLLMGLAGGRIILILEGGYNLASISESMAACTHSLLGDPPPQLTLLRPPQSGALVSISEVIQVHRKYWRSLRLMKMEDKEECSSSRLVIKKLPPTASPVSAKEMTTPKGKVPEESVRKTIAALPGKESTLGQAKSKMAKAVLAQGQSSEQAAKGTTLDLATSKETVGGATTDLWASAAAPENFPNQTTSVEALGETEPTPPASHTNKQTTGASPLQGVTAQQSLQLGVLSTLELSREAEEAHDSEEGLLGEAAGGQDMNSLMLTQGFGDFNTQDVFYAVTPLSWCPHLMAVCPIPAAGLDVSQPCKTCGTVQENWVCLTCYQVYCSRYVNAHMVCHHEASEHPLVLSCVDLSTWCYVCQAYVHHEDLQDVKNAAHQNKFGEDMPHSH

[3] = target: T3, Polyamine deacetylase HDAC10 (Homo sapiens, UniProt Q969S8); experiment: Inhibition of human HDAC10 expressed in baculovirus infected Sf9 insect cells using HDAC substrate 3 measured after 30 mins by fluorescence assay
T3 sequence (Q969S8 whole entry): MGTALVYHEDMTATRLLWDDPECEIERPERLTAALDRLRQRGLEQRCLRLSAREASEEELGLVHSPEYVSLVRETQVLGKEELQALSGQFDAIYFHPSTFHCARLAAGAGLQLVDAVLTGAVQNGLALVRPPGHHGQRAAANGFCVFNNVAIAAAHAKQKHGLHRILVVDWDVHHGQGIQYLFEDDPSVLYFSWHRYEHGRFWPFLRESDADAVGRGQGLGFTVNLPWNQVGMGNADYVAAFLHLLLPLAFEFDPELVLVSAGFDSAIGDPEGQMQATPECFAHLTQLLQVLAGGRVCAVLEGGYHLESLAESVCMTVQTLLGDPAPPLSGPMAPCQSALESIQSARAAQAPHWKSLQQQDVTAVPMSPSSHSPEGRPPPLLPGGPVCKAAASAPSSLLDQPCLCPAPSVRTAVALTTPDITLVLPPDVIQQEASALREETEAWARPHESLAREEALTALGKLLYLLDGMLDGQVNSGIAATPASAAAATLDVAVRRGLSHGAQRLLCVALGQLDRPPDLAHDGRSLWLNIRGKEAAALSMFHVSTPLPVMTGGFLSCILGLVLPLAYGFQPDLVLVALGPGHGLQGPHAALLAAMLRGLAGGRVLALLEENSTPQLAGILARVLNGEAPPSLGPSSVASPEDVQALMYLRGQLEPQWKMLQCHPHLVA

[4] = Substrate activity at PYSOCA in human CMEC/D3 cells assessed as transporter-mediated drug uptake measured for 2 mins at 37degC in presence of decynium-22; format: ADME, cell-based
[5] = target: Histone deacetylase 4 (Homo sapiens) (UniProt P56524); experiment: Inhibition of N-terminal GST tagged/C-terminal His tagged human recombinant HDAC4 (627 to 1084 residues) expressed in baculovirus infected insect cells at 30 uM using HDAC class 2a substrate measured after 30 mins by fluorescence assay relative to control
[6] = target: Histone deacetylase 3/Nuclear receptor corepressor 2 (HDAC3/NCoR2) (Homo sapiens, UniProt O15379); experiment: Inhibition of human full length C-terminal His-tagged HDAC3/N-terminal GST-tagged human NCOR2 (395 to 489 residues) co-expressed in baculovirus infected Sf9 insect cells using HDAC substrate 3 measured after 30 mins by fluorescence assay
Chain of Histone deacetylase 3/Nuclear receptor corepressor 2 (HDAC3/NCoR2) (O15379 whole entry, the tested form may be a part): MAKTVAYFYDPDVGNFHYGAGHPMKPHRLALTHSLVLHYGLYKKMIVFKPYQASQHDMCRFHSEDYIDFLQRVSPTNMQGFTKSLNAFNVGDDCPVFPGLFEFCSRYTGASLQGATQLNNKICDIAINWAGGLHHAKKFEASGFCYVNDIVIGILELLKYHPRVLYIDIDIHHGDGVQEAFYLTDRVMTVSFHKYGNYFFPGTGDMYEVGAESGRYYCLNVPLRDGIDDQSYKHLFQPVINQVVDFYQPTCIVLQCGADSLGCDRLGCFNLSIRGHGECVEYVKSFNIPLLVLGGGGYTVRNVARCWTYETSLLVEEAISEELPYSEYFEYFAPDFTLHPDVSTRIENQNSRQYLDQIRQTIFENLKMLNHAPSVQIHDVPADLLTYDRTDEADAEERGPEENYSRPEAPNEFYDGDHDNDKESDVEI
Chain of Histone deacetylase 3/Nuclear receptor corepressor 2 (HDAC3/NCoR2) (Q9Y618 whole entry, further chain, the tested form may be a part): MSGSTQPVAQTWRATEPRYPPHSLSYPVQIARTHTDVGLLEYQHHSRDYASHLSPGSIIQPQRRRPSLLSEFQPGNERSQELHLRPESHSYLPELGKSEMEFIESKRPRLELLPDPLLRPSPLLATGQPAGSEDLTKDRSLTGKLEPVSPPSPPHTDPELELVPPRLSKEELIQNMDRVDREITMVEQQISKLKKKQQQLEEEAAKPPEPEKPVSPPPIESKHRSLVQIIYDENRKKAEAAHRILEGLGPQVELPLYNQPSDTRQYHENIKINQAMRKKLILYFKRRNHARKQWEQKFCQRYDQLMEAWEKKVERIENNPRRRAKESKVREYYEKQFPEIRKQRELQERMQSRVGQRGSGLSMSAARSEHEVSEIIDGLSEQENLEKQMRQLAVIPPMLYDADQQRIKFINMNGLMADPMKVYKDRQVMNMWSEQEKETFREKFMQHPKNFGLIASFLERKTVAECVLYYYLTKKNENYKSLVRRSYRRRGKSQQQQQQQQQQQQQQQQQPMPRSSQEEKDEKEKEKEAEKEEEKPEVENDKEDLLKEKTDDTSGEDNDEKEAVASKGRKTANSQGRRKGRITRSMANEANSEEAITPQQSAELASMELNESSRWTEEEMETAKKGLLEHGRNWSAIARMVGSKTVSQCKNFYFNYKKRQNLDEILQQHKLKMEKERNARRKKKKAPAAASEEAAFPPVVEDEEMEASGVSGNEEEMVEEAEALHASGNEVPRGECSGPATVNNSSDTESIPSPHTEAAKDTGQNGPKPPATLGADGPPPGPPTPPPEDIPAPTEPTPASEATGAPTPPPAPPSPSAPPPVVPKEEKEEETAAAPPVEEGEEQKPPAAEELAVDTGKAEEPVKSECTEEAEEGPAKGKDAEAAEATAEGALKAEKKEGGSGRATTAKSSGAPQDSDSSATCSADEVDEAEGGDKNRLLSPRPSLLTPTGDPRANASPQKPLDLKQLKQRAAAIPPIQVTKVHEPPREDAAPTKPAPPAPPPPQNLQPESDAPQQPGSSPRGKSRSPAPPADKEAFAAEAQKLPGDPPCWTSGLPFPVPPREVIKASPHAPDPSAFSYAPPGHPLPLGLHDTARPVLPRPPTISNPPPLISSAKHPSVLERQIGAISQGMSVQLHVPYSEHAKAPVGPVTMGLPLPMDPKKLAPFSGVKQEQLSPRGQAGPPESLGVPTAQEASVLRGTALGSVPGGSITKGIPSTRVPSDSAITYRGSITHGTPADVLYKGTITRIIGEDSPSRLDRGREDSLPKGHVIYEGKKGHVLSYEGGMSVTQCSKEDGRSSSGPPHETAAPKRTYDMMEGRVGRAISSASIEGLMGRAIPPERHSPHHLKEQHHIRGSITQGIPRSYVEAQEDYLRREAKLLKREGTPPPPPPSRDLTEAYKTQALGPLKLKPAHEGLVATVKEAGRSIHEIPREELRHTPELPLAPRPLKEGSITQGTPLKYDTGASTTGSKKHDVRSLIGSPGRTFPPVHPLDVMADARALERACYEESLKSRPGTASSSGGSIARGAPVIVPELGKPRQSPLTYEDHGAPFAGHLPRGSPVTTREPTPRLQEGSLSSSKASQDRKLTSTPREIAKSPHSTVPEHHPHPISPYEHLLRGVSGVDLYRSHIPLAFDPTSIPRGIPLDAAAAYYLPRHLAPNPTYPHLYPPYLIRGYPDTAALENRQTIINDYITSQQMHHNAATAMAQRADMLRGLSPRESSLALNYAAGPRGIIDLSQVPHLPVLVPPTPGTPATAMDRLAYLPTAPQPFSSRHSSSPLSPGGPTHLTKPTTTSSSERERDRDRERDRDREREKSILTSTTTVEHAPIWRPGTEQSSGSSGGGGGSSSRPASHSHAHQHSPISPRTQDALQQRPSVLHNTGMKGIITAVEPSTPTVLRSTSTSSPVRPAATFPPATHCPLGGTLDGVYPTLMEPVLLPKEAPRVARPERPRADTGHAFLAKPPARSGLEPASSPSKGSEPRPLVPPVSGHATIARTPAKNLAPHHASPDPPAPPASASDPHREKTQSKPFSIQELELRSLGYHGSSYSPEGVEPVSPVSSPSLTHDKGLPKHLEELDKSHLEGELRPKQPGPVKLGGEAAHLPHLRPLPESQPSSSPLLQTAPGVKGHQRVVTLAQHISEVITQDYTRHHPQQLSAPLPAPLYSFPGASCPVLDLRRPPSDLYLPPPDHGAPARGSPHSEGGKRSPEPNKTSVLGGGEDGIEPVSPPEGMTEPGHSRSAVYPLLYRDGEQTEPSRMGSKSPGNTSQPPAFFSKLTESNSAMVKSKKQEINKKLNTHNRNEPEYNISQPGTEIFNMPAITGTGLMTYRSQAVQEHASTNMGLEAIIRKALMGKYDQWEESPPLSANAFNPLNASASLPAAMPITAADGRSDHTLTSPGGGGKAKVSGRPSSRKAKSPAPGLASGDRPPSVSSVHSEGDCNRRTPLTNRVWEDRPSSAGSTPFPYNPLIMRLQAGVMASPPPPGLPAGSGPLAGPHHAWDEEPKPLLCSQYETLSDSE

Chain of Histone deacetylase 4 (Homo sapiens) (P56524 whole entry, the tested form may be a part): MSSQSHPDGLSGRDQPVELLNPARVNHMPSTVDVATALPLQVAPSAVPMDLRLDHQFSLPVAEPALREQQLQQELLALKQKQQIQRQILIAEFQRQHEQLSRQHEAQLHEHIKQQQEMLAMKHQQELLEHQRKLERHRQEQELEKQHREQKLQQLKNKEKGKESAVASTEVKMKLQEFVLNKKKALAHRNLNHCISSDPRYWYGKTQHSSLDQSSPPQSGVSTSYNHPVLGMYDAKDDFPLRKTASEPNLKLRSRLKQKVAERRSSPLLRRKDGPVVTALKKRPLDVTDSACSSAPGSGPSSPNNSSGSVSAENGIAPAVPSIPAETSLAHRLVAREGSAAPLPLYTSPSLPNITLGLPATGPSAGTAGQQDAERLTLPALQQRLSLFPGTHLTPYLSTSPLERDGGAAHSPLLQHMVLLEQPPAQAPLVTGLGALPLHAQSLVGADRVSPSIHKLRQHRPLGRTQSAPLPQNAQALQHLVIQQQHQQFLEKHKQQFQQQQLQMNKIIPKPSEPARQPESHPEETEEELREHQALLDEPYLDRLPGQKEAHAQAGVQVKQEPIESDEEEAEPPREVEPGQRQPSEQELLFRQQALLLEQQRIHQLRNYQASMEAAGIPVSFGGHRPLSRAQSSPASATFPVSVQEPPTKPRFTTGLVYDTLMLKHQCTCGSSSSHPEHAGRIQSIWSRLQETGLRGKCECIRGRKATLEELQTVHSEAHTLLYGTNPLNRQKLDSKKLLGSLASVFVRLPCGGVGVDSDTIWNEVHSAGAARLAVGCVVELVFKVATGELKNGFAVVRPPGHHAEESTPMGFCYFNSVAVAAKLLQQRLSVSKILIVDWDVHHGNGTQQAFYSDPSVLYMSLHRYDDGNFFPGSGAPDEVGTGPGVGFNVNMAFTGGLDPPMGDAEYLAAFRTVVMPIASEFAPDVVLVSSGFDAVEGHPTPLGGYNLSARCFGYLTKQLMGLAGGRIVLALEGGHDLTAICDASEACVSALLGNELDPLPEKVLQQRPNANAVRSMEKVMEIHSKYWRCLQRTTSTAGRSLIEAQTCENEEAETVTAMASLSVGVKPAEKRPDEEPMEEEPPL

inhibition [1]: < 10%
inhibition [2]: 11%
IC50 [3]: 15.5 µM
Activity [4]: Active
inhibition [5]: < 10%
IC50 [6]: 12 µM
SMILES: COc1ccc(CN(CCN(C)C)c2ccc(C(=O)Nc3ccccc3N)cn2)cc1
